The subject of data set [1] is HK cells, transporter 31. Kind of data set: HCHT imaging: inhibition of cytosolic delivery of ETP transporter 31. The note with it: inhibitor 1 h; for IC15: read-out: MIC (concentration needed to reach 15% inhibition), transporter 31 10 μM. It counts as cell-based, Human. The essentials:
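HeLa Kyoto cells grown 24 h in FluoroBrite DMEM + 10% FBS on 96-well black plates were exposed to serially diluted inhibitors for 1 h at 37 °C, then given fluorescent transporter 31 at 10 μM for 30 min, either after washing the inhibitor out (pre-incubation) or with it still present (co-incubation). Cytosolic delivery was then scored by automated HCHT live-cell imaging with Hoechst 33342 and PI staining.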

The test system of data set [2] is HeLa Kyoto cells. Kind of data set: Relative viability (HOE/PI) in HCHT screening. In a few lines: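 HK cells exposed to increasing inhibitor concentrations, then fluorescent transporters at constant concentration, either after inhibitor removal (pre-incubation) or without removal (co-incubation).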
For data set [3], the system named is HK cells, transporter 28. Kind of data set: HCHT imaging: inhibition of cytosolic delivery of CTO transporter 28. The note with it: inhibitor 1 h; for IC50 / IC15: Homo sapiens; for IC15: read-out: MIC (concentration needed to reach 15% inhibition), transporter 28 5 μM. The class given is cell-based, Human.
Where [4] appears, read: Homo sapiens, 1 h, read-out: IC50 (concentration needed to reach 50% inhibition), transporter 31 10 μM, co-incubation (C).
[5] abbreviates: Homo sapiens, 1 h, co-incubation (C).
The mark [6] stands for this setting: transporter 31 10 μM, co-incubation (C).
[7] abbreviates: with transporter 28, co-incubation (C).
The mark [8] stands for this setting: with transporter 31, co-incubation (C).
[9] abbreviates: transporter 28 5 μM, co-incubation (C).
The mark [10] stands for this setting: with transporter 28, pre-incubation (P).
[11] abbreviates: read-out: IC50 (concentration needed to reach 50% inhibition), transporter 28 5 μM, pre-incubation (P).

Molecules are shown by their SMILES. Read-outs that look alike come from different tables or passages of the source. Some results are limits rather than exact numbers.

Consider `O=C1O[C@H]2CSS(=O)(=O)C[C@H]2O1` [Compound 11], for which the IC50 in data set [1] (setting [4]) is above 50 µM; in data set [1] (Homo sapiens, read-out: IC50 (concentration needed to reach 50% inhibition), transporter 31 10 μM, pre-incubation (P)) it was 9 µM; in data set [3] (1 h, read-out: IC50 (concentration needed to reach 50% inhibition), transporter 28 5 μM, co-incubation (C)) it was 70 ± 20 µM. Further, the IC15 in data set [1] (setting [5]) was below 5 µM; in data set [1] (Homo sapiens, 1 h, pre-incubation (P)), 1.5 µM; in data set [3] (1 h, co-incubation (C)), below 1 µM. The “MIC (concentration needed to reach 15% inhibition)” value in data set [1] (setting [6]) is below 5 µM; in data set [3] (setting [9]) it was below 1 µM. In addition, the “RV50 (concentration needed to lower relative viability by 50%)” value in data set [2] (setting [7]) was above 50 µM; in data set [2] (setting [8]), above 50 µM; in data set [2] (with transporter 31, pre-incubation (P)) it was above 20 µM.
In the case of `O=S1(=O)C[C@H](O)[C@H](O)CS1` (stereo in doubt) [Compound 3, (4S,5R)-4,5-dihydroxy-1,2-dithiane-1,1-dioxide], the results for the IC50 in data set [1] (setting [4]) and in data set [3] (setting [11]) were 35 µM and 60 µM, respectively. In addition, the IC15 in data set [1] (setting [5]) was 3 µM; in data set [3] (1 h, pre-incubation (P)), 5 µM. Also, the “MIC (concentration needed to reach 15% inhibition)” value in data set [1] (setting [6]) worked out at 3 µM. The “RV50 (concentration needed to lower relative viability by 50%)” value in data set [2] (setting [10]) and in data set [2] (setting [8]) was above 1000 µM throughout.
In the case of `[O-][S+]1C[C@@H](O)[C@@H](O)CS1` (stereo partly shown) [Compound 2], the “RV50 (concentration needed to lower relative viability by 50%)” value in data set [2] (setting [10]) is above 100 µM. In addition, the IC15 in data set [3] (1 h, pre-incubation (P)) was above 50 µM. The IC50 in data set [3] (setting [11]) was above 100 µM. The “MIC (concentration needed to reach 15% inhibition)” value in data set [3] (transporter 28 5 μM, pre-incubation (P)) is above 50 µM.
Turning to `O=S1(=O)C=C[C@@H](O)CS1` [Compound 12], the IC50 in data set [1] (setting [4]) is 7.2 ± 0.9 µM; in data set [1] (read-out: IC50 (concentration needed to reach 50% inhibition), transporter 31 10 μM, co-incubation (C)) it was 7 µM; in data set [3] (read-out: IC50 (concentration needed to reach 50% inhibition), transporter 28 5 μM, co-incubation (C)), 60 µM. In addition, the IC15 is below 1 µM in data set [1] (setting [5]) and 4.8 µM in data set [3] (1 h, co-incubation (C)). Moreover, the “MIC (concentration needed to reach 15% inhibition)” value is below 1 µM in data set [1] (setting [6]) and 5 µM in data set [3] (setting [9]). For the same molecule, the “RV50 (concentration needed to lower relative viability by 50%)” value in data set [2] (setting [7]) is 100 µM; in data set [2] (setting [8]), above 50 µM.

The values are drawn from publication PMC9088311, “Cyclic Thiosulfonates for Thiol-Mediated Uptake: Cascade Exchangers, Transporters, Inhibitors” (JACS Au, 2022).
